The values below are quoted from earlier work in PubChem BioAssay AID1259409 (Chemical Carcinogenesis Research Information System (CCRIS), 2018).

In this data set the test system is rodent chemically induced tumor inhibition, incidence and multiplicity. The data set is described as follows: CCRIS tumor inhibitor studies.

In the case of `ClC(Cl)Cl`, the “tumour outcome (control, treated, inhibition, significance)” value (Carcinogen: 1,2-DIMETHYLHYDRAZINE DIHYDROCHLORIDE, 306-37-6, Dose [Inhibitor]: 900 MG/L IN DRINKING WATER BEGINNING 7 D POST CARCINOGEN DOSE AND CONTINUING FOR 39 WK (STUDY DURATION: 39 WK), Route [Inhibitor]: ORAL, Species: RAT, Strain/Sex: F344/MALE, Target Tissue: Type of Lesion: GASTROINTESTINAL TRACT: TUMOR, Dose [Carcinogen]: 200 MG/KG ONCE, Promoter: NONE USED) is 14/39 (36%), 5/39 (13%), 64%, not calculated; the “tumour outcome (control, treated, inhibition, significance)” value (Carcinogen: 1,2-DIMETHYLHYDRAZINE DIHYDROCHLORIDE, 306-37-6, Dose [Inhibitor]: 1800 MG/L IN DRINKING WATER BEGINNING 7 D POST CARCINOGEN DOSE AND CONTINUING FOR 39 WK (STUDY DURATION: 39 WK), Route [Inhibitor]: ORAL, Species: RAT, Strain/Sex: F344/MALE, Target Tissue: Type of Lesion: GASTROINTESTINAL TRACT: TUMOR, Dose [Carcinogen]: 200 MG/KG ONCE, Promoter: NONE USED) is reported as 14/39 (36%), 5/40 (13%), 64%, not calculated; the “tumour outcome (control, treated, inhibition, significance)” value (Carcinogen: ETHYLNITROSOUREA, 759-73-9, Dose [Inhibitor]: 0, 1800 PPM IN DRINKING WATER BEGINNING AT 5 WK OF AGE AND CONTINUING TO 51 WK OF AGE (STUDY DURATION: 52 WK), Route [Inhibitor]: ORAL, Species: MOUSE, Strain/Sex: CD-1/FEMALE, Target Tissue: Type of Lesion: LUNG: ADENOMA, Dose [Carcinogen]: 5 MG/KG ONCE AT 15 D OF AGE, Promoter: NONE USED) was 10/36 (28%), 7/38 (18%), 36%, not calculated; the “tumour outcome (control, treated, inhibition, significance)” value (Carcinogen: ETHYLNITROSOUREA, 759-73-9, Dose [Inhibitor]: 0, 1800 PPM IN DRINKING WATER BEGINNING AT 5 WK OF AGE AND CONTINUING TO 51 WK OF AGE (STUDY DURATION: 52 WK), Route [Inhibitor]: ORAL, Species: MOUSE, Strain/Sex: CD-1/FEMALE, Target Tissue: Type of Lesion: LUNG: ADENOMA, Dose [Carcinogen]: 20 MG/KG ONCE AT 15 D OF AGE, Promoter: NONE USED) is listed as 25/39 (64%), 23/45 (51%), 20%, not calculated; the “tumour outcome (control, treated, inhibition, significance)” value (Carcinogen: ETHYLNITROSOUREA, 759-73-9, Dose [Inhibitor]: 0, 1800 PPM IN DRINKING WATER BEGINNING AT 5 WK OF AGE AND CONTINUING TO 51 WK OF AGE (STUDY DURATION: 52 WK), Route [Inhibitor]: ORAL, Species: MOUSE, Strain/Sex: CD-1/FEMALE, Target Tissue: Type of Lesion: LUNG: CARCINOMA, Dose [Carcinogen]: 5 MG/KG ONCE AT 15 D OF AGE, Promoter: NONE USED) was 1/36 (3%), 2/38 (5%), -67%, not calculated; the “tumour outcome (control, treated, inhibition, significance)” value (Carcinogen: ETHYLNITROSOUREA, 759-73-9, Dose [Inhibitor]: 0, 1800 PPM IN DRINKING WATER BEGINNING AT 5 WK OF AGE AND CONTINUING TO 51 WK OF AGE (STUDY DURATION: 52 WK), Route [Inhibitor]: ORAL, Species: MOUSE, Strain/Sex: CD-1/FEMALE, Target Tissue: Type of Lesion: LUNG: CARCINOMA, Dose [Carcinogen]: 20 MG/KG ONCE AT 15 D OF AGE, Promoter: NONE USED) was 2/39 (5%), 5/45 (11%), -120%, not calculated. In addition, the “tumour outcome (control, treated, inhibition, significance)” value reads like this: (Carcinogen: ETHYLNITROSOUREA, 759-73-9, Dose [Inhibitor]: 0, 1800 PPM IN DRINKING WATER BEGINNING AT 5 WK OF AGE AND CONTINUING TO 51 WK OF AGE (STUDY DURATION: 52 WK), Route [Inhibitor]: ORAL, Species: MOUSE, Strain/Sex: CD-1/MALE, Target Tissue: Type of Lesion: LIVER: ADENOMA, Dose [Carcinogen]: 5 MG/KG ONCE AT 15 D OF AGE, Promoter: NONE USED) 8/39 (21%), 1/25 (4%), 81%, p<0.05; (Carcinogen: ETHYLNITROSOUREA, 759-73-9, Dose [Inhibitor]: 0, 1800 PPM IN DRINKING WATER BEGINNING AT 5 WK OF AGE AND CONTINUING TO 51 WK OF AGE (STUDY DURATION: 52 WK), Route [Inhibitor]: ORAL, Species: MOUSE, Strain/Sex: CD-1/MALE, Target Tissue: Type of Lesion: LIVER: ADENOMA, Dose [Carcinogen]: 20 MG/KG ONCE AT 15 D OF AGE, Promoter: NONE USED) 22/30 (73%), 12/29 (41%), 44%, p<0.05; (Carcinogen: ETHYLNITROSOUREA, 759-73-9, Dose [Inhibitor]: 0, 1800 PPM IN DRINKING WATER BEGINNING AT 5 WK OF AGE AND CONTINUING TO 51 WK OF AGE (STUDY DURATION: 52 WK), Route [Inhibitor]: ORAL, Species: MOUSE, Strain/Sex: CD-1/MALE, Target Tissue: Type of Lesion: LIVER: CARCINOMA, Dose [Carcinogen]: 5 MG/KG ONCE AT 15 D OF AGE, Promoter: NONE USED) 2/39 (5%), 0/25 (0%), 100%, not calculated; (Carcinogen: ETHYLNITROSOUREA, 759-73-9, Dose [Inhibitor]: 0, 1800 PPM IN DRINKING WATER BEGINNING AT 5 WK OF AGE AND CONTINUING TO 51 WK OF AGE (STUDY DURATION: 52 WK), Route [Inhibitor]: ORAL, Species: MOUSE, Strain/Sex: CD-1/MALE, Target Tissue: Type of Lesion: LIVER: CARCINOMA, Dose [Carcinogen]: 20 MG/KG ONCE AT 15 D OF AGE, Promoter: NONE USED) 10/30 (33%), 5/29 (17%), 48%, p<0.1; (Carcinogen: ETHYLNITROSOUREA, 759-73-9, Dose [Inhibitor]: 0, 1800 PPM IN DRINKING WATER BEGINNING AT 5 WK OF AGE AND CONTINUING TO 51 WK OF AGE (STUDY DURATION: 52 WK), Route [Inhibitor]: ORAL, Species: MOUSE, Strain/Sex: CD-1/MALE, Target Tissue: Type of Lesion: LUNG: ADENOMA, Dose [Carcinogen]: 5 MG/KG ONCE AT 15 D OF AGE, Promoter: NONE USED) 11/39 (29%), 10/25 (40%), -38%, not calculated; (Carcinogen: ETHYLNITROSOUREA, 759-73-9, Dose [Inhibitor]: 0, 1800 PPM IN DRINKING WATER BEGINNING AT 5 WK OF AGE AND CONTINUING TO 51 WK OF AGE (STUDY DURATION: 52 WK), Route [Inhibitor]: ORAL, Species: MOUSE, Strain/Sex: CD-1/MALE, Target Tissue: Type of Lesion: LUNG: ADENOMA, Dose [Carcinogen]: 20 MG/KG ONCE AT 15 D OF AGE, Promoter: NONE USED) 15/30 (50%), 12/29 (41%), 18%, not calculated. The “tumour outcome (control, treated, inhibition, significance)” value is 1/39 (3%), 1/25 (4%), -33%, not calculated (Carcinogen: ETHYLNITROSOUREA, 759-73-9, Dose [Inhibitor]: 0, 1800 PPM IN DRINKING WATER BEGINNING AT 5 WK OF AGE AND CONTINUING TO 51 WK OF AGE (STUDY DURATION: 52 WK), Route [Inhibitor]: ORAL, Species: MOUSE, Strain/Sex: CD-1/MALE, Target Tissue: Type of Lesion: LUNG: CARCINOMA, Dose [Carcinogen]: 5 MG/KG ONCE AT 15 D OF AGE, Promoter: NONE USED) and 2/30 (7%), 4/29 (14%), -100%, not calculated (Carcinogen: ETHYLNITROSOUREA, 759-73-9, Dose [Inhibitor]: 0, 1800 PPM IN DRINKING WATER BEGINNING AT 5 WK OF AGE AND CONTINUING TO 51 WK OF AGE (STUDY DURATION: 52 WK), Route [Inhibitor]: ORAL, Species: MOUSE, Strain/Sex: CD-1/MALE, Target Tissue: Type of Lesion: LUNG: CARCINOMA, Dose [Carcinogen]: 20 MG/KG ONCE AT 15 D OF AGE, Promoter: NONE USED).

For `c1ccc2c(c1)c1cccc3ccc4cccc2c4c31`, the “tumour outcome (control, treated, inhibition, significance)” value is on record as 14/50 (28%), 24/50 (48%), -71%, not calculated (Carcinogen: BENZO[A]PYRENE, 50-32-8, Dose [Inhibitor]: 5 UG IN 0.1 ML ACETONE 3/WK ADMINISTERED SIMULTANEOUSLY WITH CARCINOGEN FOR DURATION OF STUDY (STUDY DURATION: 368 D), Route [Inhibitor]: DERMAL, Species: MOUSE, Strain/Sex: ICR/FEMALE, Target Tissue: Type of Lesion: SKIN: PAPILLOMA, Dose [Carcinogen]: 5 UG IN 0.1 ML ACETONE 3/WK FOR DURATION OF STUDY, Promoter: NONE USED); 10/50 (20%), 9/50 (18%), 10%, not calculated (Carcinogen: BENZO[A]PYRENE, 50-32-8, Dose [Inhibitor]: 5 UG IN 0.1 ML ACETONE 3/WK ADMINISTERED SIMULTANEOUSLY WITH CARCINOGEN FOR DURATION OF STUDY (STUDY DURATION: 368 D), Route [Inhibitor]: DERMAL, Species: MOUSE, Strain/Sex: ICR/FEMALE, Target Tissue: Type of Lesion: SKIN: SQUAMOUS CARCINOMA, Dose [Carcinogen]: 5 UG IN 0.1 ML ACETONE 3/WK FOR DURATION OF STUDY, Promoter: NONE USED); 14/50 (28%), 33/50 (66%), -136%, not calculated (Carcinogen: BENZO[A]PYRENE, 50-32-8, Dose [Inhibitor]: 15 UG IN 0.1 ML ACETONE 3/WK ADMINISTERED SIMULTANEOUSLY WITH CARCINOGEN FOR DURATION OF STUDY (STUDY DURATION: 368 D), Route [Inhibitor]: DERMAL, Species: MOUSE, Strain/Sex: ICR/FEMALE, Target Tissue: Type of Lesion: SKIN: PAPILLOMA, Dose [Carcinogen]: 5 UG IN 0.1 ML ACETONE 3/WK FOR DURATION OF STUDY, Promoter: NONE USED); 10/50 (20%), 27/50 (54%), -170%, not calculated (Carcinogen: BENZO[A]PYRENE, 50-32-8, Dose [Inhibitor]: 15 UG IN 0.1 ML ACETONE 3/WK ADMINISTERED SIMULTANEOUSLY WITH CARCINOGEN FOR DURATION OF STUDY (STUDY DURATION: 368 D), Route [Inhibitor]: DERMAL, Species: MOUSE, Strain/Sex: ICR/FEMALE, Target Tissue: Type of Lesion: SKIN: SQUAMOUS CARCINOMA, Dose [Carcinogen]: 5 UG IN 0.1 ML ACETONE 3/WK FOR DURATION OF STUDY, Promoter: NONE USED).

Consider `CCCCCCCCCCCC(=O)OCC(COC(=O)CCCCCCCCCCC)OC(=O)CCCCCCCCCCC`, for which, where the note is “Carcinogen: DIMETHYLBENZANTHRACENE, 57-97-6, Dose [Inhibitor]: APPLIED 3 MIN POST EACH PROMOTER DOSE 3/WK FOR 20 WK BEGINNING 3 D POST CARCINOGEN DOSE (STUDY DURATION: 20 WK), Route [Inhibitor]: DERMAL, Species: MOUSE, Strain/Sex: SWISS/?, Target Tissue: Type of Lesion: SKIN: TUMOR, Dose [Carcinogen]: 250 UG/0.25 ML ONCE, Promoter: CROTON OIL, 8001-28-3”, the “tumour outcome (control, treated, inhibition, significance)” value is on record as 100%, 0%, 100%, not calculated.
